Results taken from paper PMC3027604, “Spermine oxidase (SMO) activity in breast tumor tissues and biochemical analysis of the anticancer spermine analogues BENSpm and CPENSpm” (2010).

Tests used:
[1] = molecular target: T1, spermine oxidase (mSMO) (Mus musculus, UniProt Q99K82); assay: enzyme inhibition of recombinant mSMO with Spm as substrate, Dixon plot; type: biochemical
T1 construct: gene Smox; Murine recombinant SMO

[2] = molecular target: T1, spermine oxidase (mSMO); assay: enzyme inhibition of mSMO, Ki in Table […] (reference inhibitor; assay not detailed in Methods); type: biochemical; settings: cited from earlier work

T1 sequence (Q99K82 whole entry): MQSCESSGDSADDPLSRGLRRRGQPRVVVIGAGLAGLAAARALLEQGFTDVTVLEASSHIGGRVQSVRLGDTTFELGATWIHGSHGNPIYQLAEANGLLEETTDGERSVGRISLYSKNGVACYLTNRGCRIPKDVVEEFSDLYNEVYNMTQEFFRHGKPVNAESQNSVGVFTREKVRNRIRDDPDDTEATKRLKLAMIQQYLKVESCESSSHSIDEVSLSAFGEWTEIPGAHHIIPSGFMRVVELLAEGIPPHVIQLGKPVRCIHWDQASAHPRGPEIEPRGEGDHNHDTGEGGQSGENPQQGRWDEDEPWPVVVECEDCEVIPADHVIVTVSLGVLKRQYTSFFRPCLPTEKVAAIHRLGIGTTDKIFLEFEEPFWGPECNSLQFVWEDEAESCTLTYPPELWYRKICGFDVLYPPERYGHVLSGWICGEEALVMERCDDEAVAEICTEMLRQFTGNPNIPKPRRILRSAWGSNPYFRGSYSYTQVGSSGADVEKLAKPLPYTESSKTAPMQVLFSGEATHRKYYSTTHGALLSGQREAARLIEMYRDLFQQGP

| Ki [1] [µM] | SMILES | Ki [2] [µM] |
| --- | --- | --- |
| 380 | CCNCCCNCCCNCCCNCC [BENSpm] | – |
| 85 | CCNCCCNCCCNCCCNCC1CC1 [CPENSpm, N^1-ethyl-N^11-(cyclopropyl)-methyl-4,8-diazaundecane] | – |
| – | C=C=CCNCCCCNCC=C=C [MDL72527, N^1, N^4-bis(2,3-butadienyl)-1,4butanediamine] | 63 |
